Test results taken from ChEMBL document CHEMBL1201862, “PubChem BioAssay data set” (2004).
The source made the active and inactive calls. Unless noted, the calls are words filed in the database; no cut-off is given here.

What was measured:
[1] = molecular target: Beta-galactosidase (Escherichia coli, UniProt Q8VNN2); experiment: PubChem AID 485352; type: functional
[2] = molecular target: Type-1 angiotensin II receptor (Homo sapiens, UniProt P30556); experiment: antagonism of angiotensin II type 1 receptor – cell-based, uHTS hits, selectivity assay for APJ receptor antagonist project, dose response (AID 463214); type: functional;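 further: antagonist potency against angiotensin II stimulated AT1 response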
[3] = molecular target: Potassium voltage-gated channel subfamily KQT member 2 (Rattus norvegicus, UniProt O88943); experiment: Mode of action assay-Dose response assay for compounds that activate KCNQ2 potassium channels on automated patch clamp. [Related pubchem assays (depositor defined):AID2239, AID2258, AID2287, AID493113]; type: functional
[4] = molecular target: T1, Potassium voltage-gated channel subfamily KQT member 4 (Homo sapiens, UniProt P56696); experiment: activation of KCNQ4 potassium current – automated patch clamp, CHO cells, selectivity assay for KCNQ2 activator project, dose response (AID 493043); type: functional, cell-based
[5] = molecular target: Potassium voltage-gated channel subfamily KQT member 2/member 3 (Rattus norvegicus, UniProt O88943+O88944); experiment: Mode of action assay-Dose response assay for KCNQ2 activators in the KCNQ2/KCNQ3 co-expressing cells on automated patch clamp. [Related pubchem assays (depositor defined):AID2239, AID2258, AID2287]; type: functional
[6] = molecular target: T1, Potassium voltage-gated channel subfamily KQT member 4; experiment: KCNQ4 thallium flux concentration-response – KCNQ4-expressing cells, selectivity assay for KCNQ2 activator project, dose response (AID 504416); type: functional, cell-based
[7] = molecular target: Dual specificity protein kinase CLK1 (Homo sapiens, UniProt P49759); experiment: inhibition of human CLK1 activity – biochemical, cherry-picked samples, selectivity assay for Dyrk1A inhibitor project, dose response (AID 588811)
[8] = molecular target: Acyl-homoserine lactone acylase PvdQ (Pseudomonas aeruginosa (strain LESB58), UniProt Q9I194); experiment: PvdQ acylase enzyme activity blockers – biochemical, fluorescence, plate reader and imaging, cherry-picks, dose response (AID 493231)
[9] = system: HeLa; experiment: toxicity to human HeLa cells – cell-based, 48 h, plate reader, cherry-picks, cytotoxicity control, dose response (AID 504942); type: functional

T1 sequence (P56696 whole entry): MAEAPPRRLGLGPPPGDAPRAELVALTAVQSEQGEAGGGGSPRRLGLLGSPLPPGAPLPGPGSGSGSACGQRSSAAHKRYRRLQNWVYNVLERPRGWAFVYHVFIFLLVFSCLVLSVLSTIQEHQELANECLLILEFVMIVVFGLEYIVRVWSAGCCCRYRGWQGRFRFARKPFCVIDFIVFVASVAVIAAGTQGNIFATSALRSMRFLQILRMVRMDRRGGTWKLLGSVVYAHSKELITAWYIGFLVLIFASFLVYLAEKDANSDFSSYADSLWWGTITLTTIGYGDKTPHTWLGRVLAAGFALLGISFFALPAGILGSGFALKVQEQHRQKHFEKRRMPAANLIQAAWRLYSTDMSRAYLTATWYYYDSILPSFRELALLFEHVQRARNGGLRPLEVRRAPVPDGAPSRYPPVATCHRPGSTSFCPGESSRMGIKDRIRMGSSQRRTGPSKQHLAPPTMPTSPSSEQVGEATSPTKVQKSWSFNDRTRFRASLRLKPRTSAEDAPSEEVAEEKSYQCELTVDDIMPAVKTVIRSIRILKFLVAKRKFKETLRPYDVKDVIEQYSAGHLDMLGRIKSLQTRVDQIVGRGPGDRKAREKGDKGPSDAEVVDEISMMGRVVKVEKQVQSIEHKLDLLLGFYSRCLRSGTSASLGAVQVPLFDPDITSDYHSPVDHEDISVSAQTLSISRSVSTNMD
Chain of Potassium voltage-gated channel subfamily KQT member 2 (O88943 whole entry): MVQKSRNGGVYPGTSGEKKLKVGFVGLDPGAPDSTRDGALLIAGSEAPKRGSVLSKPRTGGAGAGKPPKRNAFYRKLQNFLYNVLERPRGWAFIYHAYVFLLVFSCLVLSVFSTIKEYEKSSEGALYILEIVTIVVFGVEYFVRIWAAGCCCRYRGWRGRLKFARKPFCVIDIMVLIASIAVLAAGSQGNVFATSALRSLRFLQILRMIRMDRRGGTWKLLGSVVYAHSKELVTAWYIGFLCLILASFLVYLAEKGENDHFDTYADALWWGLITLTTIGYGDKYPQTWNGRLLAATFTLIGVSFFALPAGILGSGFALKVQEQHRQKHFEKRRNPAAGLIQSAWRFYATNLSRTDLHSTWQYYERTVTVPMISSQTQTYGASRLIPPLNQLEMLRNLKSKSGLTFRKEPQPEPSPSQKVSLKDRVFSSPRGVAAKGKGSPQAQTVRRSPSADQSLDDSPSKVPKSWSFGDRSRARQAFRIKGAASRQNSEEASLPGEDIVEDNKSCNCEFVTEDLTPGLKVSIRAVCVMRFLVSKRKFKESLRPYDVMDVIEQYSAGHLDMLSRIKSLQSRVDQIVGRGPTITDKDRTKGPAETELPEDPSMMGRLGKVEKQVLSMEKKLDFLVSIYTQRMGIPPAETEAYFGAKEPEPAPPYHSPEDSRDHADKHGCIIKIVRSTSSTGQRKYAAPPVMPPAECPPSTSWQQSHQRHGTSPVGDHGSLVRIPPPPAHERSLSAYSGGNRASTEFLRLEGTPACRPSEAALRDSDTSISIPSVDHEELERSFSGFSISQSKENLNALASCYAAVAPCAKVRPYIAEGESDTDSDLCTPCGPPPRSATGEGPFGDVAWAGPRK
Chain of Potassium voltage-gated channel subfamily KQT member 2/member 3 (O88943 whole entry): as above
Chain of Potassium voltage-gated channel subfamily KQT member 2/member 3 (O88944 whole entry): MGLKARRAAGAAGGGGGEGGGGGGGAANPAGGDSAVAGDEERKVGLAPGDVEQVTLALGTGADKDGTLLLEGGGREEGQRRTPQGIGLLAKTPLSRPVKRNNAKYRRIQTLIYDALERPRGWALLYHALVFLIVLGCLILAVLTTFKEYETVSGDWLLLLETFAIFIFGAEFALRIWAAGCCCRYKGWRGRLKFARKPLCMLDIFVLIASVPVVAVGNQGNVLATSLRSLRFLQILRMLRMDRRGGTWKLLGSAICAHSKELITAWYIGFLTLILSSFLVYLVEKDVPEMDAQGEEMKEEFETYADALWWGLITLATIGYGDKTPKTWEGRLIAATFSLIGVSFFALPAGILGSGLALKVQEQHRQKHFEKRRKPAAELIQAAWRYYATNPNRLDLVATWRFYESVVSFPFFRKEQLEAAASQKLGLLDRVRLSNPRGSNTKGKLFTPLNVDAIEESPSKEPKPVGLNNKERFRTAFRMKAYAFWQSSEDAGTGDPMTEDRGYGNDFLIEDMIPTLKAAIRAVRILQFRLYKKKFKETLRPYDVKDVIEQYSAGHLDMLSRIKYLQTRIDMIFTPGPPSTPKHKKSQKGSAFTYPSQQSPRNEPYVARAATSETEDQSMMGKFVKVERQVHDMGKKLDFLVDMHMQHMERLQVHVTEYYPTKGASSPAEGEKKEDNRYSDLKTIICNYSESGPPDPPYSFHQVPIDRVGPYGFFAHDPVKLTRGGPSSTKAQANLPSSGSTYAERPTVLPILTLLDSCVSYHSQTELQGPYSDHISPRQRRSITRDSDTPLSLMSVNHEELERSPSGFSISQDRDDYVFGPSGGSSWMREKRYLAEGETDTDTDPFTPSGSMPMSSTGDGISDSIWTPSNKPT
Chain of Acyl-homoserine lactone acylase PvdQ (Q9I194 24-193 limits assumed): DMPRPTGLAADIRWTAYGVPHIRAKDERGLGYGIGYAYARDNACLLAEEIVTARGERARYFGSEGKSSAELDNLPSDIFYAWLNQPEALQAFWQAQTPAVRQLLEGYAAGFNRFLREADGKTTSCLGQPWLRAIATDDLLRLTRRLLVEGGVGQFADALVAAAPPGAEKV
Chain of Acyl-homoserine lactone acylase PvdQ (Q9I194 217-762 limits assumed): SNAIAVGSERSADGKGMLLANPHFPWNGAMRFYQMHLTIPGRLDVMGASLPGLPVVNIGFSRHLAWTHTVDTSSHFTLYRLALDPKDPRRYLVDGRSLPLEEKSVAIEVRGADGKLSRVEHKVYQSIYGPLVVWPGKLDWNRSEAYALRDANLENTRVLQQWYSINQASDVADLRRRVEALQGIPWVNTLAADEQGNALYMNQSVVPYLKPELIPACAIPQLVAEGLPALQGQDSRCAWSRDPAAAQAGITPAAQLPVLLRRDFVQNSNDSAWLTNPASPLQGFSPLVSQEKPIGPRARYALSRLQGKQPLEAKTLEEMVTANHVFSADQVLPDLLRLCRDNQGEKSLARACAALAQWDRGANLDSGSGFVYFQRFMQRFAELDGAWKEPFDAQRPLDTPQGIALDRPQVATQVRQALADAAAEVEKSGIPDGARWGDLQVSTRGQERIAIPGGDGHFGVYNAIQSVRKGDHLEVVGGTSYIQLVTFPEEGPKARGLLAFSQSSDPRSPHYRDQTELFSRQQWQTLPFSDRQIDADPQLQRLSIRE
Chain of Beta-galactosidase (Q8VNN2 whole entry): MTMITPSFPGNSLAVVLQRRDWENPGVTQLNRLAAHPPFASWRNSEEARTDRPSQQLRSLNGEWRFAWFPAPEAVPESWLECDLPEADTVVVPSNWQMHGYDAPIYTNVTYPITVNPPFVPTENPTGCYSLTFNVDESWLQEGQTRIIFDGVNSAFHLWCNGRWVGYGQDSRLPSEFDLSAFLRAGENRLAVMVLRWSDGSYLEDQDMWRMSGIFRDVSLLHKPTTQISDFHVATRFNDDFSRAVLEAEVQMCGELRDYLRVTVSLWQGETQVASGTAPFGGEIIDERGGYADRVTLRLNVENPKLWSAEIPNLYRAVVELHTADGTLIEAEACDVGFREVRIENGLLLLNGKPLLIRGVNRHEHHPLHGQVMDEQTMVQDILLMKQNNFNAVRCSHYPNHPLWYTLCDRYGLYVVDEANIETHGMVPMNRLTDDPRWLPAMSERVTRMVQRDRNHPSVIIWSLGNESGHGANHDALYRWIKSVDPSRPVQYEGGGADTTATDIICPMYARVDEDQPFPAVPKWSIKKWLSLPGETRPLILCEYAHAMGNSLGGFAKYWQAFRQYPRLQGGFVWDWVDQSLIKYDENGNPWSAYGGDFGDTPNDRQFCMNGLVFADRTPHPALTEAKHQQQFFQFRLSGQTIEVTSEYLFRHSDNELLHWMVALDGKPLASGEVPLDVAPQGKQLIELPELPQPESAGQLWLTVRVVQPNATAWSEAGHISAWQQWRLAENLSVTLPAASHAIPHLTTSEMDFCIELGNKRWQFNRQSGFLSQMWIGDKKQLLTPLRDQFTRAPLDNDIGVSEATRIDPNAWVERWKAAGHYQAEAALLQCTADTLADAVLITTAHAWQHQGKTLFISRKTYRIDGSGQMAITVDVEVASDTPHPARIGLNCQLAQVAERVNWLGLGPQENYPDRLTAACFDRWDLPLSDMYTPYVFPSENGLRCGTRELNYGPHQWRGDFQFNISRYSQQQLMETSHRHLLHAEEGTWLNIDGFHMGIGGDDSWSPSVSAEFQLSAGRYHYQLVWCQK
Chain of Dual specificity protein kinase CLK1 (P49759 whole entry): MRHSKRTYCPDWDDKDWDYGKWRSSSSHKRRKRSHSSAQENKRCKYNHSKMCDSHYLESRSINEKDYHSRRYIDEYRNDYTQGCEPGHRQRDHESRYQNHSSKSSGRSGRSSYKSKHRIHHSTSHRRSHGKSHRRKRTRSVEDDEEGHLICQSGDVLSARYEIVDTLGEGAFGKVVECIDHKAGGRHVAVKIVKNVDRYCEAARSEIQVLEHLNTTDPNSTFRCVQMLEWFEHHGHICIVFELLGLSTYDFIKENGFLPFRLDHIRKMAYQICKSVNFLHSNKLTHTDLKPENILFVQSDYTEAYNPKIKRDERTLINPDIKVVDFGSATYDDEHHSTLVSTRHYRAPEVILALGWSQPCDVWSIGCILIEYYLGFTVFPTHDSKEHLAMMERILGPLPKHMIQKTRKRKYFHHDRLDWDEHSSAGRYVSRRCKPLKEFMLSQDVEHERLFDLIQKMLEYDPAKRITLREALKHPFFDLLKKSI

CC(=O)Oc1ccc(/C=C2/SC(=S)N(Cc3ccccc3)C2=O)cc1
EC50 [1]: > 40 µM (inactive)
IC50 [2]: > 40 µM (not active)

CCCCC(=O)Nc1c(C)cc(C)cc1Cl
EC50 [3]: 2.14 µM (active)
EC50 [4]: 3.15 µM (active)
EC50 [5]: 2.69 µM (active)
EC50 [6]: 18.7 µM (active)

CN(C)S(=O)(=O)c1ccc(Cl)c(C(=O)Nc2cccc3ncccc23)c1
AC50 [7]: 1.84 µM (active)

O=C(Nc1ncc([N+](=O)[O-])s1)c1cccc([N+](=O)[O-])c1
AC50 [8]: 10.3 µM (active)
AC50 [9]: 23.1 µM (active)
